Results from PubChem BioAssay (NCI).
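Grown in 96-well plates, cells were treated for 48 hours with each compound at five concentrations. Insufficient inhibition: endpoint recorded as highest concentration tested. TGI denotes the concentration required for complete inhibition of growth.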

Key:
Assay in all cases: inhibition of tumour cell growth, NCI panel, 48 h
786-0 renal = test system: 786-0 renal
A498 renal = test system: A498 renal
A549 NSCLC = test system: A549 NSCLC
ACHN renal = test system: ACHN renal
BT-549 breast = test system: BT-549 breast
CAKI-1 renal = test system: CAKI-1 renal
CCRF-CEM leukemia = test system: CCRF-CEM leukemia
COLO 205 colon = test system: COLO 205 colon
DU-145 prostate = test system: DU-145 prostate
EKVX NSCLC = test system: EKVX NSCLC
HCC-2998 colon = test system: HCC-2998 colon
HCT-116 colon = test system: HCT-116 colon
HCT-15 colon = test system: HCT-15 colon
HL-60(TB) leukemia = test system: HL-60(TB) leukemia
HOP-62 NSCLC = test system: HOP-62 NSCLC
HOP-92 NSCLC = test system: HOP-92 NSCLC
HS 578T breast = test system: HS 578T breast
HT29 colon = test system: HT29 colon
IGROV1 ovarian = test system: IGROV1 ovarian
K-562 leukemia = test system: K-562 leukemia
KM12 colon = test system: KM12 colon
LOX IMVI melanoma = test system: LOX IMVI melanoma
M14 melanoma = test system: M14 melanoma
MALME-3M melanoma = test system: MALME-3M melanoma
MCF7 breast = test system: MCF7 breast
MDA-MB-231 breast = test system: MDA-MB-231 breast
MDA-MB-435 = test system: MDA-MB-435
MDA-N = test system: MDA-N
MOLT-4 leukemia = test system: MOLT-4 leukemia
NCI-H226 lung = test system: NCI-H226 lung
NCI-H23 lung = test system: NCI-H23 lung
NCI-H460 lung = test system: NCI-H460 lung
NCI-H522 lung = test system: NCI-H522 lung
NCI/ADR-RES ovarian = test system: NCI/ADR-RES ovarian
OVCAR-3 ovarian = test system: OVCAR-3 ovarian
OVCAR-4 ovarian = test system: OVCAR-4 ovarian
OVCAR-5 ovarian = test system: OVCAR-5 ovarian
OVCAR-8 ovarian = test system: OVCAR-8 ovarian
PC-3 prostate = test system: PC-3 prostate
RPMI-8226 leukemia = test system: RPMI-8226 leukemia
RXF 393 renal = test system: RXF 393 renal
SF-268 CNS = test system: SF-268 CNS
SF-295 CNS = test system: SF-295 CNS
SF-539 CNS = test system: SF-539 CNS
SK-MEL-2 melanoma = test system: SK-MEL-2 melanoma
SK-MEL-28 melanoma = test system: SK-MEL-28 melanoma
SK-MEL-5 melanoma = test system: SK-MEL-5 melanoma
SK-OV-3 ovarian = test system: SK-OV-3 ovarian
SN12C renal = test system: SN12C renal
SNB-19 CNS = test system: SNB-19 CNS
SNB-75 CNS = test system: SNB-75 CNS
SR leukemia = test system: SR leukemia
SW-620 colon = test system: SW-620 colon
T-47D breast = test system: T-47D breast
TK-10 renal = test system: TK-10 renal
U251 CNS = test system: U251 CNS
UACC-257 melanoma = test system: UACC-257 melanoma
UACC-62 melanoma = test system: UACC-62 melanoma
UO-31 renal = test system: UO-31 renal

Which results are given for CCOC(=O)C(NC(=O)CC(C)C)(N1CCN(c2cc3c(cc2F)c(=O)c(C(=O)O)cn3C2CC2)CC1)C(F)(F)F (stereo not drawn)?
TGI (786-0 renal): > 100 µM; TGI (A498 renal): 16.8 µM; TGI (A549 NSCLC): > 100 µM; TGI (ACHN renal): 34.6 µM; TGI (BT-549 breast): 39.1 µM; TGI (CAKI-1 renal): 74.5 µM; TGI (CCRF-CEM leukemia): 14 µM; TGI (COLO 205 colon): 30.3 µM; TGI (DU-145 prostate): > 100 µM; TGI (EKVX NSCLC): 92.8 µM; TGI (HCC-2998 colon): 28.4 µM; TGI (HCT-116 colon): 56.2 µM; TGI (HCT-15 colon): 22.3 µM; TGI (HL-60(TB) leukemia): 26 µM; TGI (HOP-62 NSCLC): > 100 µM; TGI (HOP-92 NSCLC): 25.3 µM; TGI (HS 578T breast): 57.8 µM; TGI (HT29 colon): 91.6 µM; TGI (IGROV1 ovarian): 37.6 µM; TGI (K-562 leukemia): 42 µM; TGI (KM12 colon): 39.4 µM; TGI (LOX IMVI melanoma): 35.5 µM; TGI (M14 melanoma): 47.5 µM; TGI (MALME-3M melanoma): 31.7 µM; TGI (MCF7 breast): 68.4 µM; TGI (MDA-MB-231 breast): 46.1 µM; TGI (MDA-MB-435): 56.5 µM; TGI (MDA-N): 52.3 µM; TGI (MOLT-4 leukemia): 40.2 µM; TGI (NCI-H226 lung): 46.3 µM; TGI (NCI-H23 lung): 33.5 µM; TGI (NCI-H460 lung): > 100 µM; TGI (NCI-H522 lung): 11.9 µM; TGI (NCI/ADR-RES ovarian): 52.2 µM; TGI (OVCAR-3 ovarian): 66.7 µM; TGI (OVCAR-4 ovarian): 68 µM; TGI (OVCAR-5 ovarian): 32.8 µM; TGI (OVCAR-8 ovarian): > 100 µM; TGI (PC-3 prostate): 63.7 µM; TGI (RPMI-8226 leukemia): 78.6 µM; TGI (RXF 393 renal): 35.8 µM; TGI (SF-268 CNS): 40.8 µM; TGI (SF-295 CNS): 61.5 µM; TGI (SF-539 CNS): 34.7 µM; TGI (SK-MEL-2 melanoma): 53.3 µM; TGI (SK-MEL-28 melanoma): 55.5 µM; TGI (SK-MEL-5 melanoma): 25.4 µM; TGI (SK-OV-3 ovarian): 65.8 µM; TGI (SN12C renal): > 100 µM; TGI (SNB-19 CNS): > 100 µM; TGI (SNB-75 CNS): 64.5 µM; TGI (SR leukemia): 45.8 µM; TGI (SW-620 colon): 74.1 µM; TGI (T-47D breast): 86.7 µM; TGI (TK-10 renal): 72.9 µM; TGI (U251 CNS): > 100 µM; TGI (UACC-257 melanoma): 57 µM; TGI (UACC-62 melanoma): 30.2 µM; TGI (UO-31 renal): 49.6 µM

How did the TGI (786-0 renal) turn out when CC[C@@H]1CN(C)[C@H]2Cc3c([nH]c4ccccc34)C(=O)C[C@H]1C2C(=O)OC (stereo partly drawn) was run?
The TGI was over 100 µM.

What about the TGI (A498 renal) of the same compound?
Its TGI is over 100 µM.

And the TGI (A549 NSCLC)?
Its TGI is over 100 µM.

And the TGI (ACHN renal)?
Its TGI is over 100 µM.

What about the TGI (BT-549 breast) of the same compound?
Its TGI is over 100 µM.

What about the TGI (CAKI-1 renal) of the same compound?
Its TGI is over 100 µM.

What about the TGI (CCRF-CEM leukemia) of the same compound?
Its TGI is over 100 µM.

What about the TGI (COLO 205 colon) of the same compound?
Its TGI is over 100 µM.

What about the TGI (DU-145 prostate) of the same compound?
The TGI was over 100 µM.

What about the TGI (EKVX NSCLC) of the same compound?
The TGI was over 100 µM.

What about the TGI (HCC-2998 colon) of the same compound?
Its TGI is over 100 µM.

What about the TGI (HCT-116 colon) of the same compound?
Its TGI is over 100 µM.

And the TGI (HCT-15 colon)?
The TGI was over 100 µM.

What about the TGI (HL-60(TB) leukemia) of the same compound?
The TGI was over 100 µM.

What about the TGI (HOP-62 NSCLC) of the same compound?
The TGI was over 100 µM.

What about the TGI (HOP-92 NSCLC) of the same compound?
The TGI was over 100 µM.

What about the TGI (HS 578T breast) of the same compound?
The TGI was over 100 µM.

What about the TGI (HT29 colon) of the same compound?
Its TGI is over 100 µM.

What about the TGI (IGROV1 ovarian) of the same compound?
Its TGI is over 100 µM.

And the TGI (K-562 leukemia)?
Its TGI is over 100 µM.

What about the TGI (KM12 colon) of the same compound?
Its TGI is over 100 µM.

What about the TGI (LOX IMVI melanoma) of the same compound?
The TGI was over 100 µM.

And the TGI (M14 melanoma)?
Its TGI is over 100 µM.

What about the TGI (MALME-3M melanoma) of the same compound?
Its TGI is over 100 µM.

And the TGI (MCF7 breast)?
The TGI was over 100 µM.

What about the TGI (MDA-MB-231 breast) of the same compound?
Its TGI is over 100 µM.

And the TGI (MDA-MB-435)?
The TGI was over 100 µM.

And the TGI (MDA-N)?
Its TGI is over 100 µM.

And the TGI (MOLT-4 leukemia)?
The TGI was over 100 µM.

And the TGI (NCI-H226 lung)?
The TGI was over 100 µM.

What about the TGI (NCI-H23 lung) of the same compound?
The TGI was over 100 µM.

And the TGI (NCI-H460 lung)?
The TGI was over 100 µM.

And the TGI (NCI-H522 lung)?
The TGI was over 100 µM.

What about the TGI (NCI/ADR-RES ovarian) of the same compound?
Its TGI is over 100 µM.

What about the TGI (OVCAR-3 ovarian) of the same compound?
Its TGI is over 100 µM.

And the TGI (OVCAR-4 ovarian)?
The TGI was over 31.6 µM.

What about the TGI (OVCAR-5 ovarian) of the same compound?
The TGI was over 100 µM.

What about the TGI (OVCAR-8 ovarian) of the same compound?
Its TGI is over 100 µM.

And the TGI (PC-3 prostate)?
The TGI was over 100 µM.

And the TGI (RPMI-8226 leukemia)?
Its TGI is over 100 µM.

What about the TGI (RXF 393 renal) of the same compound?
The TGI was over 100 µM.

And the TGI (SF-268 CNS)?
Its TGI is over 100 µM.

And the TGI (SF-295 CNS)?
Its TGI is over 100 µM.

And the TGI (SF-539 CNS)?
Its TGI is over 100 µM.

And the TGI (SK-MEL-2 melanoma)?
Its TGI is over 100 µM.

And the TGI (SK-MEL-28 melanoma)?
The TGI was over 100 µM.

What about the TGI (SK-MEL-5 melanoma) of the same compound?
Its TGI is over 100 µM.

And the TGI (SK-OV-3 ovarian)?
The TGI was over 100 µM.

What about the TGI (SN12C renal) of the same compound?
Its TGI is over 100 µM.

What about the TGI (SNB-19 CNS) of the same compound?
Its TGI is over 100 µM.

What about the TGI (SNB-75 CNS) of the same compound?
The TGI was over 100 µM.

What about the TGI (SR leukemia) of the same compound?
The TGI was over 100 µM.

What about the TGI (SW-620 colon) of the same compound?
Its TGI is over 100 µM.

And the TGI (T-47D breast)?
Its TGI is over 100 µM.

What about the TGI (TK-10 renal) of the same compound?
The TGI was over 100 µM.

What about the TGI (U251 CNS) of the same compound?
Its TGI is over 100 µM.

And the TGI (UACC-257 melanoma)?
The TGI was over 100 µM.

And the TGI (UACC-62 melanoma)?
The TGI was over 100 µM.

And the TGI (UO-31 renal)?
The TGI was over 100 µM.
